# Measured values taken from patent US10738056B2 (Aduro BioTech, Inc., priority 2017, dated 2020).
# Key:
# [1] = test system: cGAS/STING pathway in THP1 cells; assay: THP1 cell-based cGAS/STING pathway activity assay (IRF-3-linked luciferase reporter); conditions: Homo sapiens, THP-1
# In short: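 THP1 cells carrying an IRF-3-driven luciferase reporter were read across a range of compound concentrations, and IC50 values were derived from these concentration responses; the assay upper limit was 100 μM.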
# [2] = biological target: Human cGAS amino acids 155-522 (Homo sapiens (Human), UniProt Q8N884); assay: cGAS biochemical activity assay (ATP remaining, Kinase-Glo Max luminescence); conditions: human cGAS 155-522, ATP remaining (Kinase-Glo Max); read-out: cGAS IC50
# Sequence of Human cGAS amino acids 155-522 (Q8N884 157-522): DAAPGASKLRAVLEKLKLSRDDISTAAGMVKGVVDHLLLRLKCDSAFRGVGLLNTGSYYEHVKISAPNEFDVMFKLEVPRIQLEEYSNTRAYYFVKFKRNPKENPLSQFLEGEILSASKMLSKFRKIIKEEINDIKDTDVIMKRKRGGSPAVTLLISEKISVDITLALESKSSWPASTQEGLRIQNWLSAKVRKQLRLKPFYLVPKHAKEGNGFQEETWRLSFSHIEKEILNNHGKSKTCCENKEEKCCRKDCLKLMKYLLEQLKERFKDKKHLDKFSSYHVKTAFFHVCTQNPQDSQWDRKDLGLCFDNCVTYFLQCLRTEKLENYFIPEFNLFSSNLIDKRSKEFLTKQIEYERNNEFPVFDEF
IC50 [1] [µM],IC50 [2] [µM],Compound
> 100,< 20,"Cc1[nH]c2c(-c3ccccc3)c(C(F)(F)F)nn2c(=O)c1C(=O)Nc1ncco1 [Compound A1074, 5-methyl-N-(oxazol-2-yl)-7-oxo-3-phenyl-2-(trifluoromethyl)-4,7-dihydropyrazolo[1,5-a]pyrimidine-6-carboxamide]"
> 100,< 20,"COc1cccc2oc(-c3c(COCc4cnc[nH]4)[nH]c4c(-c5ccccc5)c(C(F)(F)F)nn4c3=O)nc12 [Compound C1182, 5-(((1H-imidazol-5-yl)methoxy)methyl)-6-(4-methoxybenzo[d]oxazol-2-yl)-3-phenyl-2-(trifluoromethyl)pyrazolo[1,5-a]pyrimidin-7(4H)-one]"
> 100,< 20,"Cc1[nH]c2c(-c3ccccc3)c(C(F)(F)F)nn2c(=O)c1C(=O)Nc1cc(C)n(C)n1 [Compound A1079, N-(1,5-dimethyl-1H-pyrazol-3-yl)-5-methyl-7-oxo-3-phenyl-2-(trifluoromethyl)-4,7-dihydropyrazolo[1,5-a]pyrimidine-6-carboxamide]"
< 20,< 20,"COCCOCc1[nH]c2c(-c3ccccc3)c(C#N)nn2c(=O)c1-c1nc2c(OC)cccc2o1 [Compound C1243, 6-(4-methoxybenzo[d]oxazol-2-yl)-5-((2-methoxyethoxy)methyl)-7-oxo-3-phenyl-4,7-dihydropyrazolo[1,5-a]pyrimidine-2-carbonitrile]"
> 100,< 20,"Cc1nn2c(=O)c(-c3nnc(C4CCCOC4)o3)c(C)[nH]c2c1-c1ccccc1 (stereo not shown) [Compound D1030, 2,5-dimethyl-3-phenyl-6-(5-(tetrahydro-2H-pyran-3-yl)-1,3,4-oxadiazol-2-yl)pyrazolo[1,5-a]pyrimidin-7(4H)-one]"
20 to 100,< 20,"COc1cc(N)c(Cl)c2oc(-c3c(C)[nH]c4c(-c5ccccc5)c(C#N)nn4c3=O)nc12 [Compound C1202, 6-(6-amino-7-chloro-4-methoxybenzo[d]oxazol-2-yl)-5-methyl-7-oxo-3-phenyl-4,7-dihydropyrazolo[1,5-a]pyrimidine-2-carbonitrile]"
< 20,< 20,"Cc1[nH]c2c(-c3ccccc3)c(C(F)(F)F)nn2c(=O)c1-c1nc2c(F)cccc2o1 [Compound C1076, 6-(4-fluorobenzo[d]oxazol-2-yl)-5-methyl-3-phenyl-2-(trifluoromethyl)pyrazolo[1,5-a]pyrimidin-7(4H)-one]"
> 100,< 20,"COc1c(Cl)ccc2oc(-c3c(C)[nH]c4c(-c5ccccc5)c(C#N)nn4c3=O)nc12 [Compound C1206, 6-(5-chloro-4-methoxybenzo[d]oxazol-2-yl)-5-methyl-7-oxo-3-phenyl-4,7-dihydropyrazolo[1,5-a]pyrimidine-2-carbonitrile]"
< 20,< 20,"COc1cccc(NC(=O)c2c(C)[nH]c3c(-c4ccccc4)c(C(F)(F)F)nn3c2=O)c1Cl [Compound A1135, N-(2-chloro-3-methoxyphenyl)-5-methyl-7-oxo-3-phenyl-2-(trifluoromethyl)-4,7-dihydropyrazolo[1,5-a]pyrimidine-6-carboxamide]"
< 20,> 250,"Cc1[nH]c2c(-c3ccccc3)c(C(F)(F)F)nn2c(=O)c1-c1ncc(C2CCCC2)o1 [Compound C1010, 6-(5-cyclopentyloxazol-2-yl)-5-methyl-3-phenyl-2-(trifluoromethyl)pyrazolo[1,5-a]pyrimidin-7(4H)-one]"
< 20,< 20,"Cc1[nH]c2c(-c3ccccc3)c(C(F)(F)F)nn2c(=O)c1-c1nc(CO)c(C2CCCCC2)o1 [Compound C1157, 6-(5-cyclohexyl-4-(hydroxymethyl)oxazol-2-yl)-5-methyl-3-phenyl-2-(trifluoromethyl)pyrazolo[1,5-a]pyrimidin-7(4H)-one]"
< 20,> 250,"COCc1[nH]c2c(-c3ccccc3)c(C(F)(F)F)nn2c(=O)c1-c1ncc(C2CCCC2)o1 [Compound C1013, 6-(5-cyclopentyloxazol-2-yl)-5-(methoxymethyl)-3-phenyl-2-(trifluoromethyl)pyrazolo[1,5-a]pyrimidin-7(4H)-one]"
< 20,< 20,"Cc1[nH]c2c(-c3ccccc3)c(C(F)(F)F)nn2c(=O)c1C(=O)Nc1cccc2c1OC(F)(F)O2 [Compound A1062, N-(2,2-difluorobenzo[d][1,3]dioxol-4-yl)-5-methyl-7-oxo-3-phenyl-2-(trifluoromethyl)-4,7-dihydropyrazolo[1,5-a]pyrimidine-6-carboxamide]"
20 to 100,< 20,"Cc1[nH]c2c(-c3ccccc3)c(C(F)(F)F)nn2c(=O)c1C(=O)Nc1ccn(C(C)C)n1 [Compound A1065, N-(1-isopropyl-1H-pyrazol-3-yl)-5-methyl-7-oxo-3-phenyl-2-(trifluoromethyl)-4,7-dihydropyrazolo[1,5-a]pyrimidine-6-carboxamide]"
20 to 100,< 20,"Cc1[nH]c2c(-c3ccccc3)c(C(F)(F)F)nn2c(=O)c1-c1nc2ccccc2c(=O)[nH]1 [Compound C1019, 2-(5-methyl-7-oxo-3-phenyl-2-(trifluoromethyl)-4,7-dihydropyrazolo[1,5-a]pyrimidin-6-yl)quinazolin-4(3H)-one]"
< 20,< 20,"CCc1cccc2oc(-c3c(C)[nH]c4c(-c5ccccc5)c(C#N)nn4c3=O)nc12 [Compound C1188, 6-(4-ethylbenzo[d]oxazol-2-yl)-5-methyl-7-oxo-3-phenyl-4,7-dihydropyrazolo[1,5-a]pyrimidine-2-carbonitrile]"
> 100,< 20,"CNc1cccc2oc(-c3c(C)[nH]c4c(-c5ccccc5)c(C#N)nn4c3=O)nc12 [Compound C1274, 5-methyl-6-(4-(methylamino)benzo[d]oxazol-2-yl)-7-oxo-3-phenyl-4,7-dihydropyrazolo[1,5-a]pyrimidine-2-carbonitrile]"
> 100,< 20,"Cc1[nH]c2c(-c3ccccc3)c(C(F)(F)F)nn2c(=O)c1-c1nc(CO)co1 [Compound C1104, 6-(4-(hydroxymethyl)oxazol-2-yl)-5-methyl-3-phenyl-2-(trifluoromethyl)pyrazolo[1,5-a]pyrimidin-7(4H)-one]"
< 20,< 20,"CCc1cccc2oc(-c3c(C)[nH]c4c(-c5ccccc5)c(C(F)(F)F)nn4c3=O)nc12 [Compound C1046, 6-(4-ethylbenzo[d]oxazol-2-yl)-5-methyl-3-phenyl-2-(trifluoromethyl)pyrazolo[1,5-a]pyrimidin-7(4H)-one]"
20 to 100,< 20,"Cc1cnc(NC(=O)c2c(C)[nH]c3c(-c4ccccc4)c(C(F)(F)F)nn3c2=O)o1 [Compound A1075, 5-methyl-N-(5-methyloxazol-2-yl)-7-oxo-3-phenyl-2-(trifluoromethyl)-4,7-dihydropyrazolo[1,5-a]pyrimidine-6-carboxamide]"
20 to 100,< 20,"Cc1[nH]c2c(-c3ccccc3)c(C(F)(F)F)nn2c(=O)c1C(=O)Nc1cccc(N)c1 [Compound A1069, N-(3-aminophenyl)-5-methyl-7-oxo-3-phenyl-2-(trifluoromethyl)-4,7-dihydropyrazolo[1,5-a]pyrimidine-6-carboxamide]"
20 to 100,< 20,"COc1cccc(NC(=O)c2c(C)[nH]c3c(-c4ccccc4)c(C(F)(F)F)nn3c2=O)c1F [Compound A1136, N-(2-fluoro-3-methoxyphenyl)-5-methyl-7-oxo-3-phenyl-2-(trifluoromethyl)-4,7-dihydropyrazolo[1,5-a]pyrimidine-6-carboxamide]"
> 100,< 20,"COc1cccc2oc(-c3c(COCCO)[nH]c4c(-c5ccccc5)c(C#N)nn4c3=O)nc12 [Compound C1248, 5-((2-hydroxyethoxy)methyl)-6-(4-methoxybenzo[d]oxazol-2-yl)-7-oxo-3-phenyl-4,7-dihydropyrazolo[1,5-a]pyrimidine-2-carbonitrile]"
> 100,20 to 250,"Cc1[nH]c2c(-c3ccccc3)c(C(F)(F)F)nn2c(=O)c1-c1nnc(C2CCCOC2)o1 (stereo not shown) [Compound D1015, 5-methyl-3-phenyl-6-(5-(tetrahydro-2H-pyran-3-yl)-1,3,4-oxadiazol-2-yl)-2-(trifluoromethyl)pyrazolo[1,5-a]pyrimidin-7(4H)-one]"
> 100,< 20,"COc1cccc2oc(-c3c(C(=O)NCC(C)(C)O)[nH]c4c(-c5ccccc5)c(C(F)(F)F)nn4c3=O)nc12 [Compound C1219, N-(2-hydroxy-2-methylpropyl)-6-(4-methoxybenzo[d]oxazol-2-yl)-7-oxo-3-phenyl-2-(trifluoromethyl)-4,7-dihydropyrazolo[1,5-a]pyrimidine-5-carboxamide]"
> 100,< 20,"Cc1[nH]c2c(-c3ccccc3)c(C(F)(F)F)nn2c(=O)c1-c1ncco1 [Compound C1170, 5-methyl-6-(oxazol-2-yl)-3-phenyl-2-(trifluoromethyl)pyrazolo[1,5-a]pyrimidin-7(4H)-one]"
< 20,< 20,"COc1cccc2oc(-c3c(C)[nH]c4c(-c5ccccc5)c(C(F)F)nn4c3=O)nc12 [Compound C1050, 2-(difluoromethyl)-6-(4-methoxybenzo[d]oxazol-2-yl)-5-methyl-3-phenylpyrazolo[1,5-a]pyrimidin-7(4H)-one]"
< 20,> 250,"COc1cccc2oc(-c3c[nH]c4c(-c5ccccc5)c(C(F)(F)F)nn4c3=O)nc12 [Compound C1079, 6-(4-methoxybenzo[d]oxazol-2-yl)-3-phenyl-2-(trifluoromethyl)pyrazolo[1,5-a]pyrimidin-7(4H)-one]"
< 20,< 20,"COc1ccc(C(C)=O)c2oc(-c3c(C)[nH]c4c(-c5ccccc5)c(C(F)(F)F)nn4c3=O)nc12 [Compound C1111, 6-(7-acetyl-4-methoxybenzo[d]oxazol-2-yl)-5-methyl-3-phenyl-2-(trifluoromethyl)pyrazolo[1,5-a]pyrimidin-7(4H)-one]"
